In patent publication US7323447B2, “Hepatitis C virus inhibitors” (Bristol-Myers Squibb Company, priority 2005, dated 2008):

Columns and labels:
[1] = target: T1, HCV NS3/4A protease complex (BMS strain) (UniProt P27958); test: FRET peptide assay to monitor HCV NS3/4A proteolytic activity, BMS strain; format: biochemical, Hepatitis C virus (genotype 1a); settings: read-out: IC50 Range; HCV NS3/4A enzyme assay; Table 1
T1 construct: other: HCV NS3/4A enzyme assay; said of H77 and J4L6S; fused on or other part: Three-lysine solubilising tail at the NS4A C-terminus and a His tag from pET21b (Ni-NTA purification), for the H77 and J4L6S constructs
T1 sequence (P27958 1027-1657, one chain of several): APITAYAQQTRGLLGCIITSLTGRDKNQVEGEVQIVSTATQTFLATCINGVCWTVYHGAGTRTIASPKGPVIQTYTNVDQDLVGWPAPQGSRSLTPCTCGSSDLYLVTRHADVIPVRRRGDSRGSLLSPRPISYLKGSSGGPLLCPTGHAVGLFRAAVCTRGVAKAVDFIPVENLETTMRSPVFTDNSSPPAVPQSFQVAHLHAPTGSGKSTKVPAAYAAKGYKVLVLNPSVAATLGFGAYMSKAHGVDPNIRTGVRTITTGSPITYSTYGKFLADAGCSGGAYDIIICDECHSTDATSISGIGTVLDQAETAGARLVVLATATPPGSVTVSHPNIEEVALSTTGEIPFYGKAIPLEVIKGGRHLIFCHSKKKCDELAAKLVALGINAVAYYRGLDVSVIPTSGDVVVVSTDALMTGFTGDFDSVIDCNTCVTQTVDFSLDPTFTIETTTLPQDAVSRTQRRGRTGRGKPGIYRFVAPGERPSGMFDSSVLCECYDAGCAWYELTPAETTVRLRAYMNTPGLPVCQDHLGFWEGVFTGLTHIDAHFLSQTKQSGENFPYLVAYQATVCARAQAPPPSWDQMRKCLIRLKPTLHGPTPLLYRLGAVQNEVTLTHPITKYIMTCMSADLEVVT
From the text: HCV NS3 protease complexes, derived from the BMS strain, H77 strain or J4L6S strain, were generated, as described below. These purified recombinant proteins were generated for use in a homogeneous assay (see below) to provide an indication of how effective compounds of the present disclosure would be in inhibiting HCV NS3 proteolytic activity.
Serum from an HCV-infected patient was obtained from Dr. T. Wright, San Francisco Hospital. An engineered full-length cDNA (compliment deoxyribonucleic acid) template of the HCV genome (BMS strain) was constructed from DNA fragments obtained by reverse transcription-PCR (RT-PCR) of serum RNA (ribonucleic acid) and using primers selected on the basis of homology between other genotype 1a strains. From the determination of the entire genome sequence, a genotype 1a was assigned to the HCV isolate according to the classification of Simmonds et al. (See P Simmonds, K A Rose, S Graham, S W Chan, F McOmish, B C Dow, E A Follett, P L Yap and […] Marsden, J. Clin. Microbiol., 31(6), 1493-1503 (1993)). […] The infectious clones, H77 (1a genotype) and J4L6S (1b genotype) were obtained from R. Purcell (NIH) and the sequences are published in Genbank (AAB67036, see Yanagi, M., Purcell, R. H., Emerson, S. U. and Bukh, J. Proc. Natl. Acad. Sci. U.S.A. 94(16), 8738-8743 (1997); AF054247, see Yanagi, M., St Claire, M., Shapiro, M., Emerson, S. U., Purcell, R. H. and Bukh, J, Virology 244 (1), 161-172. (1998)).
NS3/4A protease complex-containing fractions were pooled and loaded on a desalting column Superdex-S200 pre-equilibrated with buffer D (25 mM HEPES, pH 7.5, 20% glycerol, 300 mM NaCl, 0.2% Triton X-100, 10 mM βME). Sample was loaded at a flow rate of 1 mL/min. NS3/4A protease complex-containing fractions were pooled and concentrated to approximately 0.5 mg/ml. The purity of the NS3/4A protease complexes, derived from the BMS, H77 and J4L6S strains, were judged to be greater than 90% by SDS-PAGE and mass spectrometry analyses. The enzyme was stored at −80° C., thawed on ice and diluted prior to use in assay buffer.
The purpose of this in vitro assay was to measure the inhibition of HCV NS3 protease complexes, derived from the BMS strain, H77 strain or J4L6S strain, as described above, by compounds of the present disclosure. This assay provides an indication of how effective compounds of the present disclosure would be in inhibiting HCV NS3 proteolytic activity.
In order to monitor HCV NS3/4A protease activity, an NS3/4A peptide substrate was used. The substrate was RET S1 (Resonance Energy Transfer Depsipeptide Substrate; AnaSpec, Inc. cat # 22991) (FRET peptide), described by Taliani et al. in Anal. Biochem. 240(2):60-67 (1996). The sequence of this peptide is loosely based on the NS4A/NS4B natural cleavage site for the HCV NS3 protease except there is an ester linkage rather than an amide bond at the cleavage site. The peptide also contains a fluorescence donor, EDANS, near one end of the peptide and an acceptor, DABCYL, near the other end. The fluorescence of the peptide is quenched by […] resonance energy transfer (RET) between the donor and the acceptor, but as the NS3 protease cleaves the peptide the products are released from RET quenching and the fluorescence of the donor becomes apparent.
The peptide substrate was incubated with one of the three recombinant NS3/4A protease complexes, in the absence or presence of a compound of the present disclosure. The inhibitory effects of a compound were determined by monitoring the formation of fluorescent reaction product in real time using a Cytofluor Series 4000.
Assay buffer: 50 mM HEPES, pH 7.5; 0.15 M NaCl; 0.1% Triton; 15% Glycerol; 10 mM βME. Substrate: 2 μM final concentration (from a 2 mM stock solution in DMSO stored at −20° C.). HCV NS3/4A protease type 1a (1b), 2-3 nM final concentration (from a 5 μM stock solution in 25 mM HEPES, pH 7.5, 20% glycerol, 300 mM NaCl, 0.2% Triton-X100, 10 mM βME). […]

[2] = system: HCV replicon in HUH-7 cells; test: HCV replicon FRET assay; format: cell-based, Hepatitis C virus (strain 1b); settings: Hepatitis C virus, Huh-7, read-out: EC50 Range, HCV replicon cell assay; Table 1
From the text: An HCV replicon whole cell system was established as described by Lohmann V, Korner F, Koch J, Herian U, Theilmann L, Bartenschlager R., Science 285(5424): 110-3 (1999). This system enabled us to evaluate the effects of our HCV Protease compounds on HCV RNA replication. Briefly, using the HCV strain 1b sequence described in the Lohmann paper (Assession number: AJ238799), an HCV cDNA was synthesized by Operon Technologies, Inc. (Alameda, Calif.), and the full-length replicon was then assembled in plasmid pGem9zf(+) (Promega, Madison, Wis.) using standard molecular biology techniques. The replicon consists of (i) the HCV 5′ UTR fused to the first 12 amino acids of the capsid protein, (ii) the neomycin phosphotransferase gene (neo), (iii) the IRES from encephalomyocarditis virus (EMCV), and (iv) HCV NS3 to NS5B genes and the HCV 3′ UTR. Plasmid DNAs were linearized with ScaI and RNA transcripts were synthesized in vitro using the T7 MegaScript transcription kit (Ambion, Austin, Tex.) according to manufacturer's directions. In vitro transcripts of the cDNA were transfected into the human hepatoma cell line, HUH-7. […] Resulting cell lines were characterized for positive and negative strand RNA production and protein production over time.
The HCV replicon FRET assay was developed to monitor the inhibitory effects of compounds described in the disclosure on HCV viral replication. HUH-7 cells, constitutively expressing the HCV replicon, were grown in Dulbecco's Modified Eagle Media (DMEM) (Gibco-BRL) containing 10% Fetal calf serum (FCS) (Sigma) and 1 mg/ml G418 (Gibco-BRL). Cells were seeded the night before (1.5×10^4 cells/well) in 96-well tissue-culture sterile plates. Compound and no compound controls were prepared in DMEM containing 4% FCS, 1:100 Penicillin/Streptomysin (Gibco-BRL), 1:100 L-glutamine and 5% DMSO in the dilution plate (0.5% DMSO final concentration in the assay). Compound/DMSO mixes were added to the cells and incubated for 4 days at 37° C. After 4 days, cells were first assessed for cytotoxicity using alamar Blue (Trek Diagnotstic Systems) for a CC50 reading. The toxicity of compound (CC50) was determined by adding 1/10th volume of alamarBlue to the media incubating the cells. After 4 h, the fluorescence signal from each well was read, with an excitation wavelength at 530 nm and an emission wavelength of 580 nm, using the Cytofluor Series 4000 (Perspective Biosystems). Plates were then rinsed thoroughly with Phosphate-Buffered Saline (PBS) (3 times 150 μl). The cells were lysed with 25 μl of a lysis assay reagent containing an HCV protease substrate (5× cell Luciferase cell culture lysis reagent (Promega #E153A) diluted to 1× with distilled water, NaCl added to 150 mM final, the FRET peptide substrate (as described for the enzyme assay above) diluted to 10 μM final from a 2 mM stock in 100% DMSO. The plate was then placed into the Cytofluor 4000 instrument which had been set to 340 nm excitation/490 nm emissions, automatic mode for 21 cycles and the plate read in a kinetic mode. EC50 determinations were carried out as described for the IC50 determinations.

SMILES	IC50 [1]	EC50 [2]
C=C[C@@H]1C[C@]1(NC(=O)[C@@H]1C[C@@H](Oc2cc(-c3ccccc3)nc3cc(OC)ccc23)CN1C(=O)[C@@H](OC(=O)Nc1ccc(N(C)C)cc1)C(C)(C)C)C(=O)NS(=O)(=O)C1CC1 [Example 5,Compound 7]	0.1 to 1 µM	0.5 to 5 µM
C=C[C@@H]1C[C@]1(NC(=O)[C@@H]1C[C@@H](Oc2nccc3ccccc23)CN1C(=O)[C@@H](O)C(C)(C)C)C(=O)NS(=O)(=O)C1CC1 [Example 8]	0.1 to 1 µM	0.5 to 5 µM
C=C[C@@H]1C[C@]1(NC(=O)[C@@H]1C[C@@H](Oc2nccc3ccccc23)CN1C(=O)[C@@H](OC(=O)NC1CCCC1)C(C)(C)C)C(=O)NS(=O)(=O)C1CC1 [Example 9]	0.1 to 1 µM	0.5 to 5 µM
CCC1C[C@]1(NC(=O)[C@@H]1C[C@@H](Oc2cc(-c3ccccc3)nc3cc(OC)ccc23)CN1C(=O)C(O)C(C)(C)C)C(=O)NS(=O)(=O)C1CC1 (some centres unmarked) [Example 10]	< 0.1 µM	0.5 to 5 µM
CCC1C[C@]1(NC(=O)[C@@H]1C[C@@H](Oc2cc(-c3ccccc3)nc3cc(OC)ccc23)CN1C(=O)C(O)C(C)C)C(=O)NS(=O)(=O)C1CC1 (some centres unmarked) [Example 11]	< 0.1 µM	0.5 to 5 µM
C=C[C@@H]1C[C@]1(NC(=O)[C@@H]1CC(Oc2cc(-c3ccccc3)nc3cc(OC)ccc23)CN1C(=O)[C@@H](O)C(C)(C)C)C(=O)NS(=O)(=O)C1(CC2CC2)CC1 (some centres unmarked) [Example 12]	< 0.1 µM	0.5 to 5 µM
CCC1C[C@]1(NC(=O)[C@@H]1C[C@@H](Oc2cc(-c3ccccc3)nc3cc(OC)ccc23)CN1C(=O)[C@@H](O)C1CCCCC1)C(=O)NS(=O)(=O)C1CC1 (some centres unmarked) [Example 13]	< 0.1 µM	0.5 to 5 µM
C=C[C@@H]1C[C@]1(NC(=O)[C@@H]1C[C@@H](Oc2cc(-c3ccccc3)nc3cc(OC)ccc23)CN1C(=O)C(O)c1ccccc1)C(=O)NS(=O)(=O)C1CC1 (some centres unmarked) [Example 14]	0.1 to 1 µM	> 5 µM
CCC1C[C@]1(NC(=O)[C@@H]1C[C@@H](Oc2cc(-c3ccccc3)nc3cc(OC)ccc23)CN1C(=O)C1(O)CC1)C(=O)NS(=O)(=O)C1CC1 (some centres unmarked) [Example 15]	0.1 to 1 µM	0.5 to 5 µM
CCC1C[C@]1(NC(=O)[C@@H]1C[C@@H](Oc2cc(-c3ccccc3)nc3cc(OC)ccc23)CN1C(=O)C(O)Cc1c[nH]cn1)C(=O)NS(=O)(=O)C1CC1 (some centres unmarked) [Example 16]	0.1 to 1 µM	> 5 µM
CCC1C[C@]1(NC(=O)[C@@H]1C[C@@H](Oc2cc(-c3ccccc3)nc3cc(OC)ccc23)CN1C(=O)[C@@H](O)CC(C)C)C(=O)NS(=O)(=O)C1CC1 (some centres unmarked) [Example 17]	0.1 to 1 µM	0.5 to 5 µM
C=C[C@@H]1C[C@]1(NC(=O)[C@@H]1C[C@@H](Oc2cc(-c3ccccc3)nc3cc(OC)ccc23)CN1C(=O)[C@H](O)c1ccccc1)C(=O)NS(=O)(=O)C1CC1 [Example 18]	0.1 to 1 µM	> 5 µM
C=C[C@@H]1C[C@]1(NC(=O)[C@@H]1CC(Oc2nc(-c3ccc(OC(F)(F)F)cc3)cc3cc(OC)ccc23)CN1C(=O)[C@@H](O)C(C)(C)C)C(=O)NS(=O)(=O)C1CC1 (some centres unmarked) [Example 20]	< 0.1 µM	0.5 to 5 µM
C=C[C@@H]1CC1(NC(=O)[C@@H]1C[C@@H](Oc2cc(-c3ccccc3)nc3cc(OC)ccc23)CN1C(=O)[C@@H](OC(=O)NC(C)(C)C)C(C)(C)C)C(=O)NS(=O)(=O)C1(CC2CC2)CC1 (some centres unmarked) [Example 22]	< 0.1 µM	0.5 to 5 µM
C=C[C@@H]1C[C@]1(NC(=O)[C@@H]1C[C@@H](Oc2nc(-c3ccc(OC(F)(F)F)cc3)cc3cc(OC)ccc23)CN1C(=O)[C@@H](OC(=O)NC(C)(C)C)C(C)(C)C)C(=O)NS(=O)(=O)C1CC1 [Example 23]	< 0.1 µM	0.5 to 5 µM
C=C[C@@H]1C[C@]1(NC(=O)[C@@H]1C[C@@H](Oc2nccc3ccccc23)CN1C(=O)[C@@H](OC(=O)NC(C)(C)C)C(C)(C)C)C(=O)NS(=O)(=O)C1CC1 [Example 24]	0.1 to 1 µM	0.5 to 5 µM
